Data taken from US9340590B2 (priority 2011, dated 2016).
Positions of bridges follow the written chain, without caps; N, C: chain ends. Non-standard residues stand in square brackets, D forms with d. Residues, ends and D or L forms follow the SMILES beside them. Phe(4-I) = N[C@@H](Cc1ccc(I)cc1)C(=O)O; 2Pal = N[C@@H](Cc1ccccn1)C(=O)O

Key:
Assay in all cases: cell-based
hNav1.7 = hNav1.7 (Homo sapiens, UniProt Q15858); assay type: cell-based; conditions: Table 25; IonWorks Quattro, use; […]; read-out: IWQ Use Nav1.7
hNav1.5 = hNav1.5 (Homo sapiens, UniProt Q14524); conditions: Table 25; IonWorks Quattro, use; […]; read-out: IWQ Use Nav1.5
hNav1.3 = hNav1.3 (Homo sapiens, UniProt Q9NY46); conditions: Table 25; IonWorks Quattro, use; […]; read-out: IWQ Use Nav1.3
hNav1.3, sequence (Q9NY46 whole entry, looked up): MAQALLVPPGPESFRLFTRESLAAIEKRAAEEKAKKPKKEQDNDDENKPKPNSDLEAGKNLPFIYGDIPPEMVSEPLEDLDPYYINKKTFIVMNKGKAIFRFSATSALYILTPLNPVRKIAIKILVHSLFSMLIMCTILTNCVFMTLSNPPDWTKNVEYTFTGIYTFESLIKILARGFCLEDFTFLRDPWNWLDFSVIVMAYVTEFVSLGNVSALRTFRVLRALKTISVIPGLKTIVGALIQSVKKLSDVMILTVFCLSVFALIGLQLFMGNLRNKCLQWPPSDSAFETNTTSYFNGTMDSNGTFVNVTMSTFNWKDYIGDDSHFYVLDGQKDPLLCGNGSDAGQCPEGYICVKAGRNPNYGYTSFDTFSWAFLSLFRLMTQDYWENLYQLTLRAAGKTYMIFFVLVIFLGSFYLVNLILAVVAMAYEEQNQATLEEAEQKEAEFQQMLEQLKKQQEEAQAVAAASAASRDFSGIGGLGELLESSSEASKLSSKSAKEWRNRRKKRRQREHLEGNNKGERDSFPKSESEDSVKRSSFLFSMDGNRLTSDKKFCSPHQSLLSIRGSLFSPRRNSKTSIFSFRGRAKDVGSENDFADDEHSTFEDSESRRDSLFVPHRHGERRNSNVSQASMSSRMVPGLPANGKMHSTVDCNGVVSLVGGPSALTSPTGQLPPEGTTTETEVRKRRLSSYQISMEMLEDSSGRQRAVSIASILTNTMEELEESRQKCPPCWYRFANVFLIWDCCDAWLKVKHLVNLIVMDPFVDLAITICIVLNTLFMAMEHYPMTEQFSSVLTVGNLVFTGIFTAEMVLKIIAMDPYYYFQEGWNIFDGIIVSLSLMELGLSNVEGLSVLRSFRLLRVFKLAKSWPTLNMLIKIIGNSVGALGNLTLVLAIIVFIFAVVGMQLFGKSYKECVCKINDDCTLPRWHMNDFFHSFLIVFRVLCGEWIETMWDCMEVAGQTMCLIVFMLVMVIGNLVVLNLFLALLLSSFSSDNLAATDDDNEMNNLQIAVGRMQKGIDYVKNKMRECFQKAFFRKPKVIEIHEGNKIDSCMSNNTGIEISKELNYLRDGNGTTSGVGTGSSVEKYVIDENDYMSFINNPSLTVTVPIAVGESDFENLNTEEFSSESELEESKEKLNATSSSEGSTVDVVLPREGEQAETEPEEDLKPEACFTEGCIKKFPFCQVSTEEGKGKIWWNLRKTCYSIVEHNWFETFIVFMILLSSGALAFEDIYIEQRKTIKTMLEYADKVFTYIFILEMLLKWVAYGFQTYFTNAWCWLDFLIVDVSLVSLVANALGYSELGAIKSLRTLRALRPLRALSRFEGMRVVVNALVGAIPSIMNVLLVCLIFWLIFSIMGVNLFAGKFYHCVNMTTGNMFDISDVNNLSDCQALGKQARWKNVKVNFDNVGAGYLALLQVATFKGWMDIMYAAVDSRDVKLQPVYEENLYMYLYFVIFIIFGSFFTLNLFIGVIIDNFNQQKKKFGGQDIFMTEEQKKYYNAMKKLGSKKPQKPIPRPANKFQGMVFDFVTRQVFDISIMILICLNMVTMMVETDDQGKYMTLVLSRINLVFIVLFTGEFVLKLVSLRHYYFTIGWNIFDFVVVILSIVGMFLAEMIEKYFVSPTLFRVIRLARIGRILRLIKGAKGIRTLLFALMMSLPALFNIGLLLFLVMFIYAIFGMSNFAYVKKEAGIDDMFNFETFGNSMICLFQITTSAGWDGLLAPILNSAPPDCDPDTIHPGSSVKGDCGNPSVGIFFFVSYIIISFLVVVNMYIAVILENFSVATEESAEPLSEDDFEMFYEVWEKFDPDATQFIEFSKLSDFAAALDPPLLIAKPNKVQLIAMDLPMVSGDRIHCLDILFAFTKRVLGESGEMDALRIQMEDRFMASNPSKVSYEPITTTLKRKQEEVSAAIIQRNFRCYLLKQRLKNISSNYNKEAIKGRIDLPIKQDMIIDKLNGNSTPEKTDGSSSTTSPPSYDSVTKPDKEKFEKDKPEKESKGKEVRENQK

hNav1.7, sequence (Q15858 whole entry, looked up): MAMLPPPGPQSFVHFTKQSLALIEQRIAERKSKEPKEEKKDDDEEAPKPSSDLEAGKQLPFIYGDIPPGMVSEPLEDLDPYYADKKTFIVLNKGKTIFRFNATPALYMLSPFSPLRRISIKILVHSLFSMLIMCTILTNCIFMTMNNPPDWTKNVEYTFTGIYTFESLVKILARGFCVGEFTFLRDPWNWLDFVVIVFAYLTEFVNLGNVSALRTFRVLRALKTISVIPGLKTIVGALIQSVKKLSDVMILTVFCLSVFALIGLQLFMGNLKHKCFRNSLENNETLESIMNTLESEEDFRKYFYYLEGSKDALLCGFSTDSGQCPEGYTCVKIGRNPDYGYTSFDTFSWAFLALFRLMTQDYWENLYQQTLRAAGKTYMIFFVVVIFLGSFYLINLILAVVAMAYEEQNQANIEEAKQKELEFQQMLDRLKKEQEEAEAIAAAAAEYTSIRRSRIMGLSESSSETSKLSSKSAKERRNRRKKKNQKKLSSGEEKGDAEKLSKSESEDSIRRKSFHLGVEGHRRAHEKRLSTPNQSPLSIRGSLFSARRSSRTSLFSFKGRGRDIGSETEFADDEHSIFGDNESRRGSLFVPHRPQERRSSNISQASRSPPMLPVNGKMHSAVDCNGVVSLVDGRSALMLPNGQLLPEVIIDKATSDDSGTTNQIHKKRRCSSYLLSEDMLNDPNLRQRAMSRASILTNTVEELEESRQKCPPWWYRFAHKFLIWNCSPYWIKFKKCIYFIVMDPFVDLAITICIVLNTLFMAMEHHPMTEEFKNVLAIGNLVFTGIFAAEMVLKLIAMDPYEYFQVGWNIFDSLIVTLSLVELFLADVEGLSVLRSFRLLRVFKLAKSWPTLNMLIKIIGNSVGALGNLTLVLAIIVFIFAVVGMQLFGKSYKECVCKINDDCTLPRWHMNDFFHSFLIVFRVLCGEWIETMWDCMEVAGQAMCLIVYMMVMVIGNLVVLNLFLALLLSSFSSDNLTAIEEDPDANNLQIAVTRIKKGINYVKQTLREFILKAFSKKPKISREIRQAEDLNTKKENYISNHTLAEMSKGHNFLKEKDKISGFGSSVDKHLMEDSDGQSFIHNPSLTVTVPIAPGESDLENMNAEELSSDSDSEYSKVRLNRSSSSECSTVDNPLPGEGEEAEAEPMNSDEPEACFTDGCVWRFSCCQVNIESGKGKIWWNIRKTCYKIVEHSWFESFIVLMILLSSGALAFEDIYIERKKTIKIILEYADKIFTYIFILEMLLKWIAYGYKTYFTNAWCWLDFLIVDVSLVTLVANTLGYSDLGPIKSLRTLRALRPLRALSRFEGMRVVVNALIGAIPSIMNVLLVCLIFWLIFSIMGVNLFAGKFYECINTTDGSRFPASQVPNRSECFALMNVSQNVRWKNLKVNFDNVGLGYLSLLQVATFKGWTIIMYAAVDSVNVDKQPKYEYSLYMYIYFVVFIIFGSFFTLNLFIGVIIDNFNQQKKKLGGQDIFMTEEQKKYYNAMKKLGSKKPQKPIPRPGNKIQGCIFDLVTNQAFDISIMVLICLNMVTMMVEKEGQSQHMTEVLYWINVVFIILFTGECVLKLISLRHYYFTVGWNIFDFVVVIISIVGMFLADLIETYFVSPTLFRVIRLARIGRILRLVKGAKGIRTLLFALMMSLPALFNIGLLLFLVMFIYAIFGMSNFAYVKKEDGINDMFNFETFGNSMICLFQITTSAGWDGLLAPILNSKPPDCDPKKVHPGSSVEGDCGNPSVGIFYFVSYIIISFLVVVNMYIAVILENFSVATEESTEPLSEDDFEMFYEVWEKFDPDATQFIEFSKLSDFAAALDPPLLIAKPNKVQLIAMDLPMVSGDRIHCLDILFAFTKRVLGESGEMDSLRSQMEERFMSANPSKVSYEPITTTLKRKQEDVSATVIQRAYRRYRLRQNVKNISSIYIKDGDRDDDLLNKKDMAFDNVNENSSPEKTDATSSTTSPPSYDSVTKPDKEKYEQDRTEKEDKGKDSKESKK

SMILES	IC50 (hNav1.7) [µM]	IC50 (hNav1.5) [µM]	IC50 (hNav1.3) [µM]
CC[C@H](C)[C@@H]1NC(=O)[C@@H]2CSSC[C@@H]3NC(=O)[C@H](C(C)C)NC(=O)[C@H](CC(C)C)NC(=O)[C@H](CC(N)=O)NC(=O)[C@@H]4CCCN4C(=O)[C@H](CCCNC(=N)N)NC(=O)[C@H](CSSC[C@H](NC(=O)[C@@H](N)CC(=O)O)C(=O)N[C@@H](CC(C)C)C(=O)NCC(=O)N[C@@H](Cc4ccccc4)C(=O)N[C@@H](CCSC)C(=O)N[C@@H](CCCNC(=N)N)C(=O)N[C@@H](CCCCN)C(=O)N2)NC(=O)[C@H](CSSC[C@@H](C(=O)N[C@@H](CCCCN)C(=O)N[C@@H](CC(N)=O)C(=O)N[C@H](C(=O)N[C@@H](Cc2ccccc2)C(N)=O)C(C)C)NC(=O)[C@H](Cc2c[nH]c4ccccc24)NC(=O)[C@H](CCCCN)NC(=O)[C@H](Cc2c[nH]cn2)NC(=O)[C@H]([C@@H](C)O)NC(=O)[C@H](CCCNC(=N)N)NC(=O)[C@H](CO)NC3=O)NC(=O)[C@H](CCCCN)NC(=O)[C@H](CC(=O)O)NC(=O)[C@H](CC(N)=O)NC(=O)[C@H](CC(=O)O)NC(=O)[C@@H]2CCCN2C1=O [compound 379] (H-DCLGFMRKCIPDNDKCCRPNLVCSRTHKWCKNVF-NH2; disulfide 2-17, 9-23, 16-30)	4.86	10.6	6.85
CC[C@H](C)[C@@H]1NC(=O)[C@@H]2CSSC[C@@H]3NC(=O)[C@H](C(C)C)NC(=O)[C@H](CC(C)C)NC(=O)[C@H](CC(N)=O)NC(=O)[C@@H]4CCCN4C(=O)[C@H](CCCNC(=N)N)NC(=O)[C@H](CSSC[C@H](NC(=O)[C@@H](N)CC(=O)O)C(=O)N[C@@H](CC(C)C)C(=O)NCC(=O)N[C@@H](Cc4ccccc4)C(=O)N[C@@H](CCSC)C(=O)N[C@@H](CCCNC(=N)N)C(=O)N[C@@H](CCCCN)C(=O)N2)NC(=O)[C@H](CSSC[C@@H](C(=O)N[C@@H](CCCCN)C(=O)N[C@@H](Cc2c[nH]cn2)C(=O)N[C@H](C(=O)N[C@@H](Cc2ccccc2)C(N)=O)C(C)C)NC(=O)[C@H](Cc2c[nH]c4ccccc24)NC(=O)[C@H](CCCCN)NC(=O)[C@H](Cc2c[nH]cn2)NC(=O)[C@H]([C@@H](C)O)NC(=O)[C@H](CCCNC(=N)N)NC(=O)[C@H](CO)NC3=O)NC(=O)[C@H](CCCCN)NC(=O)[C@H](CC(=O)O)NC(=O)[C@H](CC(N)=O)NC(=O)[C@H](CC(=O)O)NC(=O)[C@@H]2CCCN2C1=O [compound 380] (H-DCLGFMRKCIPDNDKCCRPNLVCSRTHKWCKHVF-NH2; disulfide 2-17, 9-23, 16-30)	0.6	10.2	0.75
CC[C@H](C)[C@@H]1NC(=O)[C@@H]2CSSC[C@@H]3NC(=O)[C@H](C(C)C)NC(=O)[C@H](CC(C)C)NC(=O)[C@H](CC(N)=O)NC(=O)[C@@H]4CCCN4C(=O)[C@H](CCCNC(=N)N)NC(=O)[C@H](CSSC[C@H](NC(=O)[C@@H](N)CC(=O)O)C(=O)N[C@@H](CC(C)C)C(=O)NCC(=O)N[C@@H](Cc4ccccc4)C(=O)N[C@@H](CCSC)C(=O)N[C@@H](CCCNC(=N)N)C(=O)N[C@@H](CCCCN)C(=O)N2)NC(=O)[C@H](CSSC[C@@H](C(=O)N[C@@H](CCCCN)C(=O)N[C@@H](Cc2ccc(I)cc2)C(=O)N[C@H](C(=O)N[C@@H](Cc2ccccc2)C(N)=O)C(C)C)NC(=O)[C@H](Cc2c[nH]c4ccccc24)NC(=O)[C@H](CCCCN)NC(=O)[C@H](Cc2c[nH]cn2)NC(=O)[C@H]([C@@H](C)O)NC(=O)[C@H](CCCNC(=N)N)NC(=O)[C@H](CO)NC3=O)NC(=O)[C@H](CCCCN)NC(=O)[C@H](CC(=O)O)NC(=O)[C@H](CC(N)=O)NC(=O)[C@H](CC(=O)O)NC(=O)[C@@H]2CCCN2C1=O [compound 381] (H-DCLGFMRKCIPDNDKCCRPNLVCSRTHKWCK[Phe(4-I)]VF-NH2; disulfide 2-17, 9-23, 16-30)	0.03	4.44	0.01
CC[C@H](C)[C@@H]1NC(=O)[C@@H]2CSSC[C@@H]3NC(=O)[C@H](C(C)C)NC(=O)[C@H](CC(C)C)NC(=O)[C@H](CC(N)=O)NC(=O)[C@@H]4CCCN4C(=O)[C@H](CCCNC(=N)N)NC(=O)[C@H](CSSC[C@H](NC(=O)[C@@H](N)CC(=O)O)C(=O)N[C@@H](CC(C)C)C(=O)NCC(=O)N[C@@H](Cc4ccccc4)C(=O)N[C@@H](CCSC)C(=O)N[C@@H](CCCNC(=N)N)C(=O)N[C@@H](CCCCN)C(=O)N2)NC(=O)[C@H](CSSC[C@@H](C(=O)N[C@@H](CCCCN)C(=O)N[C@@H](CO)C(=O)N[C@H](C(=O)N[C@@H](Cc2ccccc2)C(N)=O)C(C)C)NC(=O)[C@H](Cc2c[nH]c4ccccc24)NC(=O)[C@H](CCCCN)NC(=O)[C@H](Cc2c[nH]cn2)NC(=O)[C@H]([C@@H](C)O)NC(=O)[C@H](CCCNC(=N)N)NC(=O)[C@H](CO)NC3=O)NC(=O)[C@H](CCCCN)NC(=O)[C@H](CC(=O)O)NC(=O)[C@H](CC(N)=O)NC(=O)[C@H](CC(=O)O)NC(=O)[C@@H]2CCCN2C1=O [compound 382] (H-DCLGFMRKCIPDNDKCCRPNLVCSRTHKWCKSVF-NH2; disulfide 2-17, 9-23, 16-30)	3.95	> 5	1.47
CC[C@H](C)[C@@H]1NC(=O)[C@@H]2CSSC[C@@H]3NC(=O)[C@H](C(C)C)NC(=O)[C@H](CC(C)C)NC(=O)[C@H](CC(N)=O)NC(=O)[C@@H]4CCCN4C(=O)[C@H](CCCNC(=N)N)NC(=O)[C@H](CSSC[C@H](NC(=O)[C@@H](N)CC(=O)O)C(=O)N[C@@H](CC(C)C)C(=O)NCC(=O)N[C@@H](Cc4ccccc4)C(=O)N[C@@H](CCSC)C(=O)N[C@@H](CCCNC(=N)N)C(=O)N[C@@H](CCCCN)C(=O)N2)NC(=O)[C@H](CSSC[C@@H](C(=O)N[C@@H](CCCCN)C(=O)N2CCC[C@H]2C(=O)N[C@H](C(=O)N[C@@H](Cc2ccccc2)C(N)=O)C(C)C)NC(=O)[C@H](Cc2c[nH]c4ccccc24)NC(=O)[C@H](CCCCN)NC(=O)[C@H](Cc2c[nH]cn2)NC(=O)[C@H]([C@@H](C)O)NC(=O)[C@H](CCCNC(=N)N)NC(=O)[C@H](CO)NC3=O)NC(=O)[C@H](CCCCN)NC(=O)[C@H](CC(=O)O)NC(=O)[C@H](CC(N)=O)NC(=O)[C@H](CC(=O)O)NC(=O)[C@@H]2CCCN2C1=O [compound 383] (H-DCLGFMRKCIPDNDKCCRPNLVCSRTHKWCKPVF-NH2; disulfide 2-17, 9-23, 16-30)	> 5	> 5	> 5
CC[C@H](C)[C@@H]1NC(=O)[C@@H]2CSSC[C@@H]3NC(=O)[C@H](C(C)C)NC(=O)[C@H](CC(C)C)NC(=O)[C@H](CC(N)=O)NC(=O)[C@@H]4CCCN4C(=O)[C@H](CCCNC(=N)N)NC(=O)[C@H](CSSC[C@H](NC(=O)[C@@H](N)CC(=O)O)C(=O)N[C@@H](CC(C)C)C(=O)NCC(=O)N[C@@H](Cc4ccccc4)C(=O)N[C@@H](CCSC)C(=O)N[C@@H](CCCNC(=N)N)C(=O)N[C@@H](CCCCN)C(=O)N2)NC(=O)[C@H](CSSC[C@@H](C(=O)N[C@@H](CCCCN)C(=O)N[C@@H](Cc2ccccn2)C(=O)N[C@H](C(=O)N[C@@H](Cc2ccccc2)C(N)=O)C(C)C)NC(=O)[C@H](Cc2c[nH]c4ccccc24)NC(=O)[C@H](CCCCN)NC(=O)[C@H](Cc2c[nH]cn2)NC(=O)[C@H]([C@@H](C)O)NC(=O)[C@H](CCCNC(=N)N)NC(=O)[C@H](CO)NC3=O)NC(=O)[C@H](CCCCN)NC(=O)[C@H](CC(=O)O)NC(=O)[C@H](CC(N)=O)NC(=O)[C@H](CC(=O)O)NC(=O)[C@@H]2CCCN2C1=O [compound 384] (H-DCLGFMRKCIPDNDKCCRPNLVCSRTHKWCK[2Pal]VF-NH2; disulfide 2-17, 9-23, 16-30)	0.81	7.65	0.66
